Data on two compounds can be found in ChEMBL document CHEMBL6120946, “From Hit to Lead: Discovery of First-In-Class Furanone Glycoside D228 Derived from Chimonanthus salicifolius for the Treatment of Inflammatory Bowel Disease” (J Med Chem, 2024).

In data set [1] the test system is Mus musculus. Kind of data set: Antiinflammatory activity in DSS-induced male C57BL/6 mouse model assessed as inhibition of IL-22 level in colon at 50 to 200 microM/Kg. In kind it is functional, organism-based. The note with it: dose 50-200 µM/Kg.
The test system of data set [2] is Mus musculus. Kind of data set: Antiinflammatory activity in DSS-induced male C57BL/6 mouse model of inflammatory bowel disease assessed as reduction in weight loss at 15 to 60 mg/kg/day, po via gavage measured upto 14 days. The note with it: dose 15-60 mg/kg/day, time <= 14.0 day. In kind it is functional, organism-based.
For data set [3], the system named is Mus musculus. Description: Antiinflammatory activity in DSS-induced male C57BL/6 mouse model of inflammatory bowel disease assessed as increase in colon length at 10 mg/kg/day, ip measured after 14 days relative to control. It is filed as functional. The note with it: time 14 day.
The subject of data set [4] is Mus musculus. Kind of data set: Antiinflammatory activity in DSS-induced male C57BL/6 mouse model of inflammatory bowel disease assessed as amelioration of structural loss of colon at 50 to 200 microM/Kg by H and E staining based analysis. It is filed as functional, organism-based. The note with it: dose 50-200 µM/Kg.
The subject of data set [5] is Mus musculus. Description: Antiinflammatory activity in DSS-induced male C57BL/6 mouse model of inflammatory bowel disease assessed as upregulation of ZO-1 expression in colon at 50 to 200 microM/Kg by immunohistochemical analysis. It is filed as functional, organism-based. The note with it: dose 50-200 µM/Kg.
For data set [6], the species on record is Mus musculus. Description: Antiinflammatory activity in DSS-induced male C57BL/6 mouse model of inflammatory bowel disease assessed as reduction in MYD88 level. It is filed as functional, organism-based.
The species entered for data set [7] is Mus musculus. Kind of data set: Antiinflammatory activity in DSS-induced male C57BL/6 mouse model of inflammatory bowel disease assessed as reduction in TLR8 level. It is filed as functional, organism-based.
Data set [8] can be described thus: Genotoxicity in Salmonella typhimurium by Ames test. In kind it is toxicity. The note with it: salmonella enterica subsp. enterica serovar typhimurium.
In data set [9] the test system is Mus musculus. Kind of data set: Antiinflammatory activity in DSS-induced male C57BL/6 mouse model of inflammatory bowel disease assessed as amelioration of infiltration of inflammatory cells at 50 to 100 microM/Kg by H and E staining based analysis. In kind it is functional, organism-based. The note with it: dose 50-100 µM/Kg.
Data set [10] is described as follows: Toxicity in male Kunming mouse assessed as change in food intake at 100 to 500 mg/kg/day, po measured after 5 weeks. In kind it is organism-based. The note with it: in vivo, 840 h, dose 100-500 mg/kg/day.
A short description of data set [11]: Acute toxicity in female Kunming mouse assessed as effect on lung 5 g/Kg, po measured after 5 weeks. The note with it: in vivo, 5000 mg/kg, 840 h. In kind it is organism-based.
Data set [12] in a line: Toxicity in female Kunming mouse assessed as effect on TP level in serum at 100 to 500 mg/kg/day, po measured after 5 weeks. It is filed as organism-based. The note with it: in vivo, 840 h, dose 100-500 mg/kg/day.
Data set [13] has as its system Mus musculus. Kind of data set: Antiinflammatory activity in DSS-induced male C57BL/6 mouse model of inflammatory bowel disease assessed as reduction of bloody stool at 22.5 to 45 mg/kg/day, po via gavage measured upto 14 days. It is filed as functional, organism-based. The note with it: dose 22.5-45 mg/kg/day, time <= 14.0 day.
Data set [14] can be described thus: Toxicity in female Kunming mouse assessed as effect on spleen at 100 to 500 mg/kg/day, po measured after 5 weeks by H and E staining based analysis. It is filed as organism-based. The note with it: in vivo, 840 h, dose 100-500 mg/kg/day.
Data set [15] is described as follows: Toxicity in male Kunming mouse assessed as effect on Na inorganic salt level in serum at 100 to 500 mg/kg/day, po measured after 5 weeks. In kind it is organism-based. The note with it: in vivo, 840 h, dose 100-500 mg/kg/day.
Data set [16] in a line: Toxicity in female Kunming mouse assessed as effect on T-CHO level in serum at 100 to 500 mg/kg/day, po measured after 5 weeks. It is filed as organism-based. The note with it: in vivo, 840 h, dose 100-500 mg/kg/day.
For data set [17], the system named is Mus musculus. Kind of data set: Antiinflammatory activity in DSS-induced male C57BL/6 mouse model of inflammatory bowel disease assessed as upregulation of ZO-1 expression in colon at 50 to 100 microM/Kg by immunohistochemical analysis. The note with it: dose 50-100 µM/Kg. It is filed as functional, organism-based.
Data set [18] in a line: Toxicity in female Kunming mouse assessed as effect on TG level in serum at 100 to 500 mg/kg/day, po measured after 5 weeks. The note with it: in vivo, 840 h, dose 100-500 mg/kg/day. In kind it is organism-based.
In data set [19] the test system is Mus musculus. Description: Antiinflammatory activity in DSS-induced male C57BL/6 mouse model assessed as inhibition of TNF-alpha level in colon at 50 to 100 microM/Kg. In kind it is functional, organism-based. The note with it: dose 50-100 µM/Kg.
The nature of data set [20]: Toxicity in male Kunming mouse assessed as effect on liver to body weight ratio at 100 to 500 mg/kg/day, po measured after 5 weeks. The note with it: in vivo, 840 h, dose 100-500 mg/kg/day. It is filed as organism-based.
The nature of data set [21]: Toxicity in female Kunming mouse assessed as effect on K inorganic salt level in serum at 100 to 500 mg/kg/day, po measured after 5 weeks. It is filed as organism-based. The note with it: in vivo, 840 h, dose 100-500 mg/kg/day.
The test system of data set [22] is Mus musculus. Kind of data set: Antiinflammatory activity in DSS-induced male C57BL/6 mouse model assessed as increase in IL-10 level in colon at 50 to 100 microM/Kg. In kind it is functional, organism-based. The note with it: dose 50-100 µM/Kg.
The nature of data set [23]: Acute toxicity in female Kunming mouse assessed as effect on kidney 5 g/Kg, po measured after 5 weeks. In kind it is organism-based. The note with it: in vivo, 5000 mg/kg, 840 h.
Data set [24] in a line: Toxicity in female Kunming mouse assessed as effect on ALP level in serum at 100 to 500 mg/kg/day, po measured after 5 weeks. It is filed as organism-based. The note with it: in vivo, 840 h, dose 100-500 mg/kg/day.
Data set [25] in a line: Toxicity in male Kunming mouse assessed as effect on CK level in serum at 100 to 500 mg/kg/day, po measured after 5 weeks. The note with it: in vivo, 840 h, dose 100-500 mg/kg/day. In kind it is organism-based.
In data set [26] the test system is Mus musculus. Description: Antiinflammatory activity in DSS-induced male C57BL/6 mouse model of inflammatory bowel disease assessed as downregulation of TRAF6 expression at 50 to 100 microM/Kg by Western blot analysis. In kind it is functional, organism-based. The note with it: dose 50-100 µM/Kg. On the technique in general: In western blotting, separated proteins are transferred to a membrane and probed.

Data set [27] in a line: Toxicity in female Kunming mouse assessed as effect on heart at 100 to 500 mg/kg/day, po measured after 5 weeks by H and E staining based analysis. It is filed as organism-based. The note with it: in vivo, 840 h, dose 100-500 mg/kg/day.
Data set [28] concerns Mus musculus. Description: Antiinflammatory activity in DSS-induced male C57BL/6 mouse model assessed as inhibition of IL-6 level in colon at 50 to 100 microM/Kg. It is filed as functional, organism-based. The note with it: dose 50-100 µM/Kg.
Data set [29] can be described thus: Toxicity in female Kunming mouse assessed as effect on Cl inorganic salt level in serum at 100 to 500 mg/kg/day, po measured after 5 weeks. It is filed as organism-based. The note with it: in vivo, 840 h, dose 100-500 mg/kg/day.
Data set [30] is described as follows: Toxicity in male Kunming mouse assessed as effect on Cl inorganic salt level in serum at 100 to 500 mg/kg/day, po measured after 5 weeks. It is filed as organism-based. The note with it: in vivo, 840 h, dose 100-500 mg/kg/day.
Data set [31] in a line: Toxicity in female Kunming mouse assessed as lethal dose administered as po measured after 5 weeks. The note with it: in vivo. It is filed as organism-based.
A short description of data set [32]: Toxicity in male Kunming mouse assessed as effect on spleen to body weight ratio at 100 to 500 mg/kg/day, po measured after 5 weeks. In kind it is organism-based. The note with it: in vivo, 840 h, dose 100-500 mg/kg/day.
Data set [33] in a line: Toxicity in female Kunming mouse assessed as effect on body weight loss at 100 to 500 mg/kg/day, po measured after 5 weeks. In kind it is organism-based. The note with it: in vivo, 840 h, dose 100-500 mg/kg/day.
Data set [34] can be described thus: Toxicity in female Kunming mouse assessed as effect on CK level in serum at 100 to 500 mg/kg/day, po measured after 5 weeks. It is filed as organism-based. The note with it: in vivo, 840 h, dose 100-500 mg/kg/day.
Data set [35] deals with Mus musculus. Kind of data set: Antiinflammatory activity in DSS-induced male C57BL/6 mouse model assessed as inhibition of IL-17A level in colon at 50 to 100 microM/Kg. It is filed as functional, organism-based. The note with it: dose 50-100 µM/Kg.
Data set [36] relates to Mus musculus. Description: Antiinflammatory activity in DSS-induced male C57BL/6 mouse model assessed as effect on JNK phosphorylation level at 50 to 100 microM/Kg by Western blot analysis. In kind it is functional, organism-based. The note with it: dose 50-100 µM/Kg.
Data set [37] concerns Mus musculus. Kind of data set: Antiinflammatory activity in DSS-induced male C57BL/6 mouse model of inflammatory bowel disease assessed as reduction in weight loss at 22.5 to 45 mg/kg/day, po via gavage measured upto 14 days. The note with it: dose 22.5-45 mg/kg/day, time <= 14.0 day. In kind it is functional, organism-based.
Data set [38] is described as follows: Toxicity in female Kunming mouse assessed as effect on heart to body weight ratio at 100 to 500 mg/kg/day, po measured after 5 weeks. In kind it is organism-based. The note with it: in vivo, 840 h, dose 100-500 mg/kg/day.

Calls of active or inactive are those of the source. The rule behind the calls is not given here. A value given as a limit tells only on which side of the number the result lay.

Take `CC(C)=C1OC(C)=C(O[C@@H]2O[C@H](CO)[C@@H](O)[C@H](O)[C@H]2O)C1=O`: the result with Mus musculus [1], in the data set with Mus musculus [2], in the data set on Mus musculus [4], in the data set with Mus musculus [5], in the data set listed under Mus musculus [6] and in the data set listed under Mus musculus [7] was Active. In addition, the Activity in the data set with Mus musculus [3] is 20.4%.
A word on the LD50: it is the dose at which mortality reaches 50%. As for `CC(=O)OC[C@H]1O[C@@H](OC2=C(C)OC(=C(C)C)C2=O)[C@H](OC(C)=O)[C@@H](OC(C)=O)[C@@H]1OC(C)=O`, the Activity entry in data set [8], in [10], in data set [11], in data set [12], in [14] and in data set [15] was “Non-toxic” in each case. In addition, the Activity result in data set [16], in data set [18], in [20], in [21], in data set [23] and in [24] was “Non-toxic” each time. The Activity result in [25], in data set [27], in [29], in [30], in data set [32] and in data set [33] was “Non-toxic” throughout. For the same compound, the Activity result in [34] and in data set [38] was “Non-toxic” in each case. Also, the outcome in the data set with Mus musculus [9], with Mus musculus [13], in the data set on Mus musculus [17], with Mus musculus [19], in the data set with Mus musculus [22] and in the data set with Mus musculus [26] was Active. Besides, the outcome in the data set with Mus musculus [28], in the data set on Mus musculus [35] and with Mus musculus [37] was Active. In addition, the LD50 at 840 h in data set [31] was above 500 mg/kg. Also, the outcome in the data set on Mus musculus [36] was inactive.
